Series [1] deals with Human large intestine cancer cell strain KM20C. The series can be described thus: Anti-tumor test using nude mouse subcutaneous implantation system with peroral administration of CNDAC compound. Particulars: peroral once a day for 14 days, dose equivalent by mole to 18 mg/kg/day of CNDAC, day 29 after grouping, KM20C subcutaneous implant. The class given is in vivo, BALB/cA Jcl-nu mice. The method, then: (§1) Human large intestine cancer cell strain KM20C was subcutaneously subcultured in BALB/cA Jcl-nu mice (CLEA Japan, Inc.), and the resultant cancer tissues were cut into 2 mm dice fragments. Each of the fragments was subcutaneously implanted to a 6-week-old BALB/cA Jcl-nu mouse at the back thereof. On day 14 after the implantation, large and small diameters of the resultant tumor were measured, and the volume of the tumor was calculated by the following equation. The mice were grouped (6 animals per group) so that the groups were roughly equal in terms of average tumor volume. Vt=½(Vl)×(Vs)^2 (Equation 1) In the equation, Vt represents tumor volume, Vl represents large diameter of tumor, and Vs represents small diameter of tumor.
Each CNDAC compound was dissolved or suspended in 0.5% hydroxypropyl methyl cellulose solution which had been buffered with 100 mM citrate buffer (pH 6.0). From the next day after grouping, the mixture was perorally administered to each mouse once a day for consecutive 14 days in a dose which is equivalent, by mole, to 18 mg/kg/day of CNDAC.
On day 29 after the grouping, large and small diameters of the subcutaneously implanted tumor of each mouse were measured, and relative tumor volume (RTV) and inhibition rate (IR) were calculated by the following equations to evaluate anti-tumor effect of the compound. RTV=Vt1/Vt2 (Equation 2) In the equation, RTV represents ratio of tumor volume, Vt1 represents tumor volume measured on the day of determination, and […]. IR(%)=[1−(RTVtest)/(RTVcont)]×100 (Equation 3) In the equation, IR represents tumor growth inhibition rate, RTVtest represents mean RTV value of a drug-administered group, and RTVcont represents mean RTV value of a non-treatment group.

The test system is the same in series [2]. The series can be described thus: Anti-tumor test using nude mouse subcutaneous implantation system, peroral administration in an equitoxic dose. The class given is in vivo, BALB/cA Jcl-nu mice. As to conditions: peroral once a day for 14 days, FIG. 1; for deletion of tumor: 6 animals per group. The method, then: as §1, with “15” for “14”, “through use of” for “by”, “the” for “the groups were roughly equal in terms of”, “volume was common to each group.” for “volume.”, “5)” for “1)”
CNDAC, P-CNDAC, or Compound 19 was dissolved or suspended in 0.5% hydroxypropyl methyl cellulose solution which had been buffered with 100 mM citrate buffer (pH 5.0). From the next day of grouping, the mixture was perorally administered to each mouse once a day for consecutive 14 days in an equitoxic dose.
Large and small diameters of the subcutaneously implanted tumor of each mouse were measured twice a week, and relative tumor volume (RTV) was calculated as an index indicating tumor growth through use of the following equations to evaluate anti-tumor effect of the compound. RTV=Vt1/Vt2 (Equation 6) In the equation, RTV represents ratio of tumor volume, Vt1 represents tumor volume measured on the day of determination, and Vt2 represents tumor volume measured on the day of grouping.

[3] abbreviates: Mus musculus, sc, 696 h, read-out: IR (%) tumor growth inhibition rate.

The values below come from US7825103B2, “Pyrimidine nucleoside compound or its salt” (Taiho Pharmaceutical Co., Ltd., priority 2005, dated 2010).

Each structure is given as a SMILES string.

The term melting point denotes the temperature of the solid-liquid transition.

As for `N#C[C@H]1[C@H](O)[C@@H](CO)O[C@H]1n1ccc(N)nc1=O` [CNDAC, 2′-cyano-2′-deoxy-1-β-D-arabinofuranosylcytosine, reference compound], in series [1] (setting [3]), the inhibition in vivo at 18 mg/kg/day was 46%. Also, the deletion of tumor result in series [2] is reported as “no deletion of tumor”. As to `CC(C)(C)[Si](C)(C)OC[C@H]1O[C@@H](n2ccc(N)nc2=O)[C@@H](C#N)[C@@H]1O` [Example 1, 5′-O-(tert-Butyldimethylsilyl)-2′-cyano-2′-deoxy-1-β-D-arabinofuranosylcytosine], the melting point is 185 °C (dec.). Also, in series [1] (setting [3]), the inhibition in vivo turned out to be 75%. The corresponding values for `CC(C)[Si](OC[C@H]1O[C@@H](n2ccc(N)nc2=O)[C@@H](C#N)[C@@H]1O)(C(C)C)C(C)C` [Example 2, 5′-O-Triisopropylsilyl-2′-cyano-2′-deoxy-1-β-D-arabinofuranosylcytosine] are 177 °C (dec.) and 65%. Regarding `CC[Si](CC)(OC[C@H]1O[C@@H](n2ccc(N)nc2=O)[C@@H](C#N)[C@@H]1O)C(C)C` [Example 3, 5′-O-Diethylisopropylsilyl-2′-cyano-2′-deoxy-1-β-D-arabinofuranosylcytosine], the “IR (%) tumor growth inhibition rate” value in series [1] was 82%. For `CC(C)C(C)(C)[Si](C)(C)OC[C@H]1O[C@@H](n2ccc(N)nc2=O)[C@@H](C#N)[C@@H]1O` [Example 6, 5′-O-Dimethylthexylsilyl-2′-cyano-2′-deoxy-1-β-D-arabinofuranosylcytosine], the melting point was 188 °C (dec.). The inhibition in vivo in series [1] (setting [3]) was 82%. In turn, `CC(C)C[Si](CC(C)C)(CC(C)C)OC[C@H]1O[C@@H](n2ccc(N)nc2=O)[C@@H](C#N)[C@@H]1O` [Example 7, 5′-O-Triisobutylsilyl-2′-cyano-2′-deoxy-1-β-D-arabinofuranosylcytosine] gave a melting point of 152 °C. Also, the inhibition in vivo in series [1] (setting [3]) turned out to be 79%. The corresponding values for `CCCCCCCC[Si](C)(C)OC[C@H]1O[C@@H](n2ccc(N)nc2=O)[C@@H](C#N)[C@@H]1O` [Example 10, 5′-O-(Dimethyl-n-octylsilyl)-2′-cyano-2′-deoxy-1-β-D-arabinofuranosylcytosine] are 142 °C and 68%. In the same order, the values of `CC(C)(C)[Si]1(C(C)(C)C)OC[C@H]2O[C@@H](n3ccc(N)nc3=O)[C@@H](C#N)[C@@H]2O1` [Example 18, 3′,5′-O-(Di-tert-butylsilanediyl)-2′-cyano-2′-deoxy-1-β-D-arabinofuranosylcytosine] are 139 to 140 °C and 69%. For `CC(C)C(C)(C)[Si](C)(C)O[C@H]1[C@H](C#N)[C@H](n2ccc(N)nc2=O)O[C@@H]1CO` [Example 19, 3′-O-Dimethylthexylsilyl-2′-cyano-2′-deoxy-1-β-D-arabinofuranosylcytosine], the melting point was 159 to 161 °C. In addition, the inhibition in vivo in series [1] (setting [3]) stood at 89%. In addition, in series [2], the deletion of tumor result is on record as “deletes tumor in three cases in total six cases”; the “change in tumor volume (RTV)” value is “greatly reduces the tumor volume as compared with CNDAC and P-CNDAC”. Compound `CC[Si](CC)(O[C@H]1[C@H](C#N)[C@H](n2ccc(N)nc2=O)O[C@@H]1CO)C(C)C` [Example 21, 3′-O-Diethylisopropylsilyl-2′-cyano-2′-deoxy-1-β-D-arabinofuranosylcytosine] registered a melting point of 161 to 163 °C. The inhibition in vivo in series [1] (setting [3]) was found to be 85%. In the same order, the values of `CC(C)(C)[Si](C)(C)O[C@H]1[C@H](C#N)[C@H](n2ccc(N)nc2=O)O[C@@H]1CO.O=C(O)C(F)(F)F` [Example 24, 3′-O-(tert-Butyldimethylsilyl)-2′-cyano-2′-deoxy-1-β-D-arabinofuranosylcytosine trifluoroacetate] are 163 to 165 °C and 83%. The corresponding values for `CC(C)[Si](O[C@H]1[C@H](C#N)[C@H](n2ccc(N)nc2=O)O[C@@H]1CO)(C(C)C)C(C)C` [Example 27, 3′-O-Triisopropylsilyl-2′-cyano-2′-deoxy-1-β-D-arabinofuranosylcytosine] are 162 to 163 °C and 85%. `CC(C)[C@H](N)C(=O)OC[C@H]1O[C@@H](n2ccc(N)nc2=O)[C@@H](C#N)[C@@H]1O[Si](C)(C)C(C)(C)C(C)C` [Example 31, 3′-O-Dimethylthexylsilyl-5′-O-(L-valyl)-2′-cyano-2′-deoxy-1-β-D-arabinofuranosylcytosine bis(trifluoroacetate)]: the inhibition in vivo in series [1] (setting [3]) worked out at 89%. In the case of `CC(C)[C@H](N)C(=O)OC[C@H]1O[C@@H](n2ccc(N)nc2=O)[C@@H](C#N)[C@@H]1O[Si](C)(C)C(C)(C)C` [Example 32, 5′-O-(L-Valyl)-3′-O-(tert-butyldimethylsilyl)-2′-cyano-2′-deoxy-1-β-D-arabinofuranosylcytosine bis(trifluoroacetate)], the inhibition in vivo in series [1] (setting [3]) turned out to be 85%. As to `CCCCCCCCCCCCCCCC(=O)Nc1ccn([C@@H]2O[C@H](CO)[C@@H](O)[C@@H]2C#N)c(=O)n1` [P-CNDAC, 4-N-palmitoyl-2′-cyano-2′-deoxy-1-β-D-arabinofuranosylcytosine, reference compound], in series [2], the deletion of tumor result is listed as “no deletion of tumor”.
